Test results: BindingDB's records for doi:10.1016/S0960-894X(00)80170-5 (1992)

Tests used:
[1] = target: T1, 5-hydroxytryptamine receptor 3A/3B (Mus musculus, UniProt P23979+Q9JHJ5); assay: Compound was evaluated for binding to Serotonin 5-hydroxytryptamine 3 receptor in N1E cells using [3H]- -Tropisetron as radioligand
T1 sequence (P23979 whole entry): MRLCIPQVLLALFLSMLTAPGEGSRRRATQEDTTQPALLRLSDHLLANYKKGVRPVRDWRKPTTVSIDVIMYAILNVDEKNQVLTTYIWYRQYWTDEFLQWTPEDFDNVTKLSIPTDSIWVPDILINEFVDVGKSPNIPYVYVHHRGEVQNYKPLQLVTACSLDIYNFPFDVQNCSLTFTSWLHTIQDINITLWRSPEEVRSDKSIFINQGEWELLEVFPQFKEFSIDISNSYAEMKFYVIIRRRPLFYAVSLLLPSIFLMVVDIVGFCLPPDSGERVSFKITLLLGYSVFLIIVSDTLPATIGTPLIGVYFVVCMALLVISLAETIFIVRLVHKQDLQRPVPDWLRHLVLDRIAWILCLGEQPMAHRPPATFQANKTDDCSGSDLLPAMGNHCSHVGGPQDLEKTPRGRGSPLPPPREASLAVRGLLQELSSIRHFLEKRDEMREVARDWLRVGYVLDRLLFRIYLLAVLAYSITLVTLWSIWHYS
T1 sequence (Q9JHJ5 whole entry): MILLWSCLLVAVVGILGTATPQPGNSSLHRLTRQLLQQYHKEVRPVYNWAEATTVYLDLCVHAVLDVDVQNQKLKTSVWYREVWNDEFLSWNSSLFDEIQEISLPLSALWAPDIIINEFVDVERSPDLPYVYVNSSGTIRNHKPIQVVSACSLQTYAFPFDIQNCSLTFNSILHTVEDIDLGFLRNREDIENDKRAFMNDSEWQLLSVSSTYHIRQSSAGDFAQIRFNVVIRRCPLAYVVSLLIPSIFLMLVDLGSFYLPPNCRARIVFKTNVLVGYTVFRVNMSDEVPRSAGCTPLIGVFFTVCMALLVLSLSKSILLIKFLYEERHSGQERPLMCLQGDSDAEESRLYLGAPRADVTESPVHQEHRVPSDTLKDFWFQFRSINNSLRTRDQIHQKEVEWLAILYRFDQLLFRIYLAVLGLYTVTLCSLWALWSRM

[2] = target: T1, 5-hydroxytryptamine receptor 3A/3B; assay: Compound was evaluated for binding to 5-hydroxytryptamine 3 receptor in N1E cells using [3H]- -Tropisetron as radioligand

| Structure (SMILES) | Kd [1] [pM] | Kd [2] [pM] |
| --- | --- | --- |
| CN1C2CC(OC(=O)c3c[nH]c4ccccc34)CC1C1OC12 (stereo not drawn) | 631 | – |
| CN1[C@@H]2CC[C@H]1C[C@@H](OC(=O)c1c[nH]c3ccccc13)C2 [(3-ENDO)-8-METHYL-8-AZABICYCLO[3.2.1]OCT-3-YL 1H-INDOLE-3-CARBOXYLATE] | 794 | – |
| Cc1nccn1CC1CCc2c(c3ccccc3n2C)C1=O (stereo not drawn) [NSC_68647] | – | 20000 |
